Data reported in patent publication US10132810B2, “Method for assessing and predicting efficacy of breast cancer treatment with a long-acting topoisomerase I inhibitor” (priority 2012, dated 2018).
Like-named read-outs stand apart in the source and are kept apart here.

Tests used:
[1] = system: patients with previously treated metastatic breast cancer; assay: Efficacy of two dosing schedules in patients with previously treated metastatic breast cancer (RECIST response, PFS, OS); format: in vivo, human
Protocol: Seventy patients were enrolled in the trial (n=35 per arm). […] Patients received treatment until disease progression or unacceptable toxicity. The drug dosage was dose-reduced by 25 mg/m^2 for grade 3-4 hematologic toxicity, grade 3-4 diarrhea, and other grade 2-4 non-hematologic toxicities (other than alopecia, anorexia, asthenia, and untreated nausea/vomiting). […] Medical history was taken at screening and on day 1 of each cycle. […] Coagulation parameters were analyzed at screening and on day 1 of each cycle. […] Patients were contacted approximately every 3 months after the end-of-treatment visit to assess progression (in the absence of progression on study), survival, receipt of subsequent anti-cancer therapy, and resolution of toxicity. […] Exploratory endpoints included change from baseline in CA27.29, UGT1A1 and ABCC2 polymorphism for correlation with select toxicities. Three populations for analysis were defined: 1) intent-to-treat (ITT), 2) efficacy evaluable, and 3) safety. The ITT population was the primary population for all efficacy analyses and included all randomized patients. […] The safety population consisted of all patients who received at least one dose or partial dose of chemotherapeutic agent. Summary statistics were used for continuous variables, frequency counts and percentages were used for categorical variables. Ninety-five percent confidence interval were calculated for ORR using the Exact method. Time-to-event variables were analyzed using the Kaplan-Meier method.

serum CA27.29 = system: serum CA27.29
Protocol: Medical history was taken at screening and on day 1 of each cycle. Physical exam was performed and serum CA27.29, complete blood count with differential, and serum chemistry were analyzed at screening, on day 1 of each cycle, and at end of treatment. Coagulation parameters were analyzed at screening and on day 1 of each cycle. […] Patients were contacted approximately every 3 months after the end-of-treatment visit to assess progression (in the absence of progression on study), survival, receipt of subsequent anti-cancer therapy, and resolution of toxicity.
Secondary endpoints were PFS, overall survival (OS), 6-month and 1-year survival, and safety. Exploratory endpoints included change from baseline in CA27.29, UGT1A1 and ABCC2 polymorphism for correlation with select toxicities.
The analysis dataset utilized consisted of 45 patients having at least two CA27.29 measurements (pre- and post-first dose).
Levels of CA27.29 were also evaluated for correlation with tumor size over the course of treatment.

Pentaerythritolyl-4-Arm-(PEG-1-Methylene-2 Oxo-Vinylamino Acetate linked-Irinotecan)-20K [4-arm-PEG-gly-irino-20K]
objective response rate (ORR) ([1]; 145 mg/m^2 iv, administered every 14 days or every 21 days): 28.6% | Overall Survival (OS) ([1]; Total (both schedules)): 10.3 months | Progression Free Survival (PFS) ([1]; Total (both schedules)): 4.6 months | Overall Response Rate (ORR) ([1]; Total (both schedules), N = 66): 29% (N = 66) | Overall Survival (OS) ([1]; q21d schedule): 13.1 months | Progression Free Survival (PFS) ([1]; q21d schedule): 5.3 months | decrease in serum CA27.29 levels over time (serum CA27.29; 145 mg/m^2, both q14d and q21d regimens, FIGS. 1A and 1B): at least twenty five | median change in CA27.29 (serum CA27.29; RECIST PD, FIG. 5): increased | median of the maximum CA27.29 decline (serum CA27.29; RECIST PR and CR, FIG. 5): > 50% | median decline in CA27.29 (serum CA27.29; RECIST SD < 6 months, FIG. 5): negligible | median of the maximum decline in CA27.29 (serum CA27.29; RECIST SD >= 6 months, FIG. 5): 30% | Overall best CA27.29 response (50% or better decline in at least one observation from baseline) (serum CA27.29; Total, 16/45 patients): 36% (16/45) | median PFS (serum CA27.29; patients with <25% reduction (n=4) or elevations (n=13) in CA27.29 by week 6): 6 months | median PFS (serum CA27.29; patients with >=25% reduction in CA27.29 by week 6 (n=12)): 12 months | patients showing CA27.29 elevation from baseline (serum CA27.29; patients with RECIST PD (8/10)): Eighty | patients manifesting declines in CA27.29 (serum CA27.29; patients with RECIST SD >= 6 months (n=5)): All patients | patients showing a decline in CA27.29 (serum CA27.29; patients with SD < 6 months (6/11)): 55%
